Data published in patent US9198902B2, “1,4-dihydropyridine-3,5-dicarboxylate derivatives and preparation and use thereof” (Xuanzhu Pharma Co., Ltd., priority 2011, dated 2015).

Legend:
[1] = test system: SHRs; assay: In vivo hypotensive activity in SHRs, DSI implant-type remote blood pressure measurement; set-up: species or system rats; details: male SHRs, 10 mg/kg po, monitored 24 hours
Procedure: The in vivo hypotensive activity assay was conducted according to DSI experimental procedure with reference to page 56 of WO 2009/056934 A1. The agents to be tested, lercanidipine, barnidipine, amlodipine, azelnidipine, efonidipine and manidipine, were accurately weighed. Each agent was dissolved in DMSO. To the resulting solution was added 50% of the corresponding volume of PEG400 so that the final concentration of each agent was 1 mg/ml, and the final concentration of DMSO was 3%. […] Each compound was dissolved in DMSO. […] The compound to be tested, Compound 15, was accurately weighed. This compound was dissolved in DMSO. […] The compound to be tested, Compound 16 (optical activity)+108.34° and Compound 17 (optical activity optical activity)+36.4°, were accurately weighed. […] The test for hypotensive effect: Male SHRs were subjected to an abdominal aorta implantation using an implant, and used in the test after 7-10 days of recovery. The administration was an intragastric administration. One hour before the administration, the measured blood pressure was used as the pre-administration basic blood pressure value. After the administration, SHRs, allowed free access to the diet, were continuously monitored with a DSI implant-type blood pressure remote measurement system for 24 hours.

[2] = target: Human Cav3.2 (Homo sapiens, UniProt O95180); assay: T-type calcium ion channel inhibition, FLIPR method; format: cell-based; details: Human Cav3.2 in stable HEK-293 cells, FLIPR Calcium 4 No-Wash kit
Chain of Human Cav3.2 (O95180 whole entry): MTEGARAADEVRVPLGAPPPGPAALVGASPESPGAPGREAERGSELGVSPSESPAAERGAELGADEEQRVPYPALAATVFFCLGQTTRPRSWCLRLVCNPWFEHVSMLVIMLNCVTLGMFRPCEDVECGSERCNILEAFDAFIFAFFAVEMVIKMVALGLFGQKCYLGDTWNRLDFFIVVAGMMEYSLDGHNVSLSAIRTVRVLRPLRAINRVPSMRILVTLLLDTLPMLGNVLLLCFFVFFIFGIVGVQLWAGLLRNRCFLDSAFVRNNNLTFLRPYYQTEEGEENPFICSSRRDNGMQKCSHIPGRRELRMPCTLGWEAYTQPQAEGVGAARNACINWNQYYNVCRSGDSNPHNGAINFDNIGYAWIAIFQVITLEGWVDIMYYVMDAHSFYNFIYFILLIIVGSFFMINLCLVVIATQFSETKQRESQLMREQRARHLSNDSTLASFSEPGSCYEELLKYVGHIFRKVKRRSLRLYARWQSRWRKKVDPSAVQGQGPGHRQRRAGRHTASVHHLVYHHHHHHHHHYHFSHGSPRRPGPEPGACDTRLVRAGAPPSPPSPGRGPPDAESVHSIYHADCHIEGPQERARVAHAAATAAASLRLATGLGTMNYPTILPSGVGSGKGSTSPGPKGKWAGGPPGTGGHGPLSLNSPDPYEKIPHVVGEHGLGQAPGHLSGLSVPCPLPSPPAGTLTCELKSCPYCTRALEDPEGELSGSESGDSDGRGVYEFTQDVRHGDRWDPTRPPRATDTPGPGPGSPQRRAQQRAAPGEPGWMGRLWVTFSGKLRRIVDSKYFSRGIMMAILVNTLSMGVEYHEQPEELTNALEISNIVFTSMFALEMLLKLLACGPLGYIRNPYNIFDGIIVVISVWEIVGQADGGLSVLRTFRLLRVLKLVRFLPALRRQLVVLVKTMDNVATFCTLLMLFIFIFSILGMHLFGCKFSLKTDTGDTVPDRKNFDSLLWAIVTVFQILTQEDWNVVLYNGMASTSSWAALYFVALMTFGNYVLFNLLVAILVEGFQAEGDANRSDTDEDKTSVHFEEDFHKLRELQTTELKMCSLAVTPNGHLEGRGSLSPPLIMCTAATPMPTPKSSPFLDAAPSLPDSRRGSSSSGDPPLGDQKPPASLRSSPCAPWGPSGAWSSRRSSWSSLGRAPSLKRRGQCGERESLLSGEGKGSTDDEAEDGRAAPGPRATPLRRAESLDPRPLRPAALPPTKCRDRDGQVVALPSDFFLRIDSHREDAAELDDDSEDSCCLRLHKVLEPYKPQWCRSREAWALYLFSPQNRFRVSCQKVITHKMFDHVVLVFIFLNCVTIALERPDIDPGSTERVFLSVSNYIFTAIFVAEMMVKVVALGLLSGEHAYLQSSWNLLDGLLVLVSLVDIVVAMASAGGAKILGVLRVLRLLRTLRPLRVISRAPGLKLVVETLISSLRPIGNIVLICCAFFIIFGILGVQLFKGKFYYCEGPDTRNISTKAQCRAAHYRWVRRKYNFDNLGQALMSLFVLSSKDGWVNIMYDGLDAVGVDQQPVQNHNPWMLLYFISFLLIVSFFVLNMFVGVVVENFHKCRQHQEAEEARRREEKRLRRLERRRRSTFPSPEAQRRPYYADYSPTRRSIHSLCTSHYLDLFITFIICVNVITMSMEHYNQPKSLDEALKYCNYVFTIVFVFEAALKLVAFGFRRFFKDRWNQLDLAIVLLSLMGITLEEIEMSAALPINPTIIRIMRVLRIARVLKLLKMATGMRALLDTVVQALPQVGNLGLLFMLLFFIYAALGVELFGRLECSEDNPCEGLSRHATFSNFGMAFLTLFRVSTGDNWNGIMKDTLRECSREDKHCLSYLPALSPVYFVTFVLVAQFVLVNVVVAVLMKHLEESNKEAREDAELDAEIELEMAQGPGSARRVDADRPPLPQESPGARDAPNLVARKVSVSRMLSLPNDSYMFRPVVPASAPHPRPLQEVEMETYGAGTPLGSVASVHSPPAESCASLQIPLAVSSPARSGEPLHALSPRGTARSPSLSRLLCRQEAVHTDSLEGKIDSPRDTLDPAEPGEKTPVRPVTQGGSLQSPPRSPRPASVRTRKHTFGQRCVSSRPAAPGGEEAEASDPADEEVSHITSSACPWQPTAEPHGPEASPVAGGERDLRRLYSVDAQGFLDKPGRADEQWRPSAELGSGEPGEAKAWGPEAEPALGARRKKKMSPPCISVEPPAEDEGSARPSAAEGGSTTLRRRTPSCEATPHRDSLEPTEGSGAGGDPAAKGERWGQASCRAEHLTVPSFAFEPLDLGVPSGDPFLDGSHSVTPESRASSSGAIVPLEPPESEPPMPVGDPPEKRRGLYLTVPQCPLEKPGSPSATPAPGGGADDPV
Procedure: T-type tests for Compound 19 and Compound 20 were assigned to Chan Test Corporation, and conducted according to the FLIPR experimental procedure as follows.
It was done with reference to the method disclosed on page 48 of WO 2009/056934 A1.
Samples were weighed accurately and diluted in a 3-fold stepwise dilution so that the final concentrations were as follows: 100 μM, 30 μM, 10 μM, 3 μM, 1 μM, 0.3 μM, 0.1 μM, 0.03 μM, 0.01 μM, 0.003 μM.
T-type test: Human Cav3.2 was cloned in stable HEK-293 cells, and then the operation was conducted with FLIPR Calcium 4 No-Wash kit. The cell medium was removed. To an HEPES solution free of calcium ion was added 20 μL dye to dye for 30 minutes at a temperature of 37° C. This buffer free of calcium ion included NaCl, 137 mM; KCl, 0.5 mM; MgCl2 mM, 1 mM; HEPES, 10 mM; glucose, 10 mM. The pH value was adjusted to 7.4 with NaOH. After 30 minutes, the buffer was placed at room temperature for 30 minutes. Then 5 μL of compound to be tested, solvent or blank control were added. The compound was formulated with a buffer containing calcium ion, said buffer including KCl, 135 mM; CaCl2, 10.8 mM; MgCl2, 1 mM; HEPES, 10 mM; glucose, 10 mM. The collected fluorescence values were analyzed and the inhibition ratios were calculated.

[3] = test system: SHRs (spontaneous hypertensive rats); assay: In vivo hypotensive activity in SHRs, tail-pinch method; details: male SHRs, 10 mg/kg po; for Max ΔMAP (mmHg ± SEM): measured 1-24 h after administration
Procedure: The in vivo hypotensive activity assay was conducted according to the tail-pinch method with reference to Folia pharmacol. Japon. 97, 115-126 (1991).
The agents to be tested, lercanidipine, barnidipine, amlodipine, azelnidipine, efonidipine and manidipine, were accurately weighed respectively. Each agent was dissolved in DMSO. To the resulting solution was added 50% of the corresponding volume of PEG400 so that the final concentration of each agent was 1 mg/ml, and the final concentration of DMSO was 3%.
The compounds to be tested, Compound 18, Compound 21, Compound 22, Compound 23, and Compound 26, were accurately weighed respectively. Each compound was dissolved in DMSO. To the resulting solution was added 50% of the corresponding volume of PEG400 so that the final concentration of each compound was 1 mg/ml, and the final concentration of DMSO was 3%.
The compounds to be tested, Compound 19 and Compound 20, were accurately weighed respectively. Each compound was suspended in 0.5% MC so that the final concentration of each compound was 1 mg/ml.
The test for hypotensive effect: Male SHRs (spontaneous hypertensive rats) were randomly allocated into a control group and an administration group. The administration was an intragastric administration. One hour before the administration, the measured blood pressure was used as the pre-administration basic blood pressure value. After the administration, the contractive pressure, the heart rate and the mean arterial pressure of SHRs at six time points, i.e. 1, 2, 4, 6, 8 and 24 hours after the administration, were measured with a Softron BP-98A non-invasive blood pressure instrument respectively.

[4] = target: L-type calcium ion channels (Cavia porcellus, UniProt O35505); assay: L-type calcium ion channel inhibition, whole cell patch-clamp (electrophysiological method); format: cell-based; details: left ventricle muscle cells of guinea pigs, room temperature
Chain of L-type calcium ion channels (O35505 whole entry): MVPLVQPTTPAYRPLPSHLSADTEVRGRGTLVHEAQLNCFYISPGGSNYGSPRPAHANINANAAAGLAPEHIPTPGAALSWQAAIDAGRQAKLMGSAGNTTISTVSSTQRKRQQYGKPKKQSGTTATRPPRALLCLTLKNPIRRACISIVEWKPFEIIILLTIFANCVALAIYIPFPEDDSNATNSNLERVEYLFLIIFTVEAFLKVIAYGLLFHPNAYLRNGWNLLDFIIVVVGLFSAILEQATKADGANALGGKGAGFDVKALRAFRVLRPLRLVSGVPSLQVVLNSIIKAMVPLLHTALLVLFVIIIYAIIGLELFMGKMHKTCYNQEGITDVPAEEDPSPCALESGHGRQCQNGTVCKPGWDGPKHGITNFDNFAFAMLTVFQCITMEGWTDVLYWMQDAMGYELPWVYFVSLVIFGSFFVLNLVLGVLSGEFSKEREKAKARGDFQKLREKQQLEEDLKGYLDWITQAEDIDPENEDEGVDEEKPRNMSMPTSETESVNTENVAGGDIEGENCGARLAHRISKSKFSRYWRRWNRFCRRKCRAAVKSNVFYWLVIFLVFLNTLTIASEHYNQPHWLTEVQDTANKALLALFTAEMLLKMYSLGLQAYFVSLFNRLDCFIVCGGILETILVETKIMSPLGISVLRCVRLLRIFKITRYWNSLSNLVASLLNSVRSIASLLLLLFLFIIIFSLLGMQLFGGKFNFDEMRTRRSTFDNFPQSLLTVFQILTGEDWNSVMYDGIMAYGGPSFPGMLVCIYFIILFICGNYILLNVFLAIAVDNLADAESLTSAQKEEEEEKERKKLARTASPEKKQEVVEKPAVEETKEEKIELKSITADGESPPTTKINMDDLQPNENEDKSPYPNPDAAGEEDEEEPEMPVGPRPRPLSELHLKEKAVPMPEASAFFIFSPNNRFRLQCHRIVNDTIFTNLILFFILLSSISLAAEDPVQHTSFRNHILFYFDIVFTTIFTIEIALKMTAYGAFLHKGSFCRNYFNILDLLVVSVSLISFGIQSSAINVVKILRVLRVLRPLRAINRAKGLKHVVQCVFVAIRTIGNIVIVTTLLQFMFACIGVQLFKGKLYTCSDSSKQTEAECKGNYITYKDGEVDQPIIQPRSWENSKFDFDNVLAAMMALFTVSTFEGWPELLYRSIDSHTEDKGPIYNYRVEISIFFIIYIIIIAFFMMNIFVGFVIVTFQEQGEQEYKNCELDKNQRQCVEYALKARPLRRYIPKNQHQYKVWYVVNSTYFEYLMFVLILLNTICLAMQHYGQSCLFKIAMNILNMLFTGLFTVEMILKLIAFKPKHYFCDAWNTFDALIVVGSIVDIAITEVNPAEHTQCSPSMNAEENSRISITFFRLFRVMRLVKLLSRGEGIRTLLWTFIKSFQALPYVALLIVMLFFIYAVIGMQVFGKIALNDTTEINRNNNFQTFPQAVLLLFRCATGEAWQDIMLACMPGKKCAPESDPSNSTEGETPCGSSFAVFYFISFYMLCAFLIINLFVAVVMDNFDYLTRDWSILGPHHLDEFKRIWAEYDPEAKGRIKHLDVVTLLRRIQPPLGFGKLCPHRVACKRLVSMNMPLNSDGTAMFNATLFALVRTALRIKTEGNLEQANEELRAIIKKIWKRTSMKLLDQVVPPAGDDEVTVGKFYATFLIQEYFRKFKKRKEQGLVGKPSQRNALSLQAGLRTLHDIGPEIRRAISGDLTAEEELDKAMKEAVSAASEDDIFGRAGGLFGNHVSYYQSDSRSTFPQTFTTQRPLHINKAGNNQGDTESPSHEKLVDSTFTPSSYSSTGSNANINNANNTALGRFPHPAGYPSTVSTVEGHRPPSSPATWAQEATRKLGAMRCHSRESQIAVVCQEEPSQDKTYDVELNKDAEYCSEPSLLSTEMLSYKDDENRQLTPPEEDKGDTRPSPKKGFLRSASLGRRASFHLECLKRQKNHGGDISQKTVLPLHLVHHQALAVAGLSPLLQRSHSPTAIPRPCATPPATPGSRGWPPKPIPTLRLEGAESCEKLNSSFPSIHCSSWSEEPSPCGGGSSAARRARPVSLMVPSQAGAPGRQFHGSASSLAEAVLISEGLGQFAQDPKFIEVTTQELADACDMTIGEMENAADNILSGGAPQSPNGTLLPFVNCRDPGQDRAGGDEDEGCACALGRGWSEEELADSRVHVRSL
From the text: 2. Test for L- and T-Type Calcium Ion Channel Inhibitors
This experiment was assigned to HD Biosciences Corporation (Shanghai) and conducted with an electrophysiological method.
It was done with reference to the method as disclosed by Jung-Ha Lee, et. al., “Identification of T-Type α1H Ca^2+ Channels (Cav3.2) in Major Pelvic Ganglion Neurons”. J Neurophysiol 87:2844-2850, 2002.
Test samples were weighed accurately and diluted in a 3-fold stepwise dilution so that the final concentrations were as follows:
L-type test: Left ventricle muscle cells were separated from guinea pigs. The cells were used in the experiment in eight hours. The ionic current of a single cell was recorded by applying the whole cell patch-clamp technique at room temperature, wherein the clamp current was −80 mV, and the pulse interval was 10 s. The inward current (the activiation was started from 0 mV) is the L-type calcium current (ICa,L).
The electrode inner liquid (mM): CsCl 120, TEA-Cl 20, CaCl2 1, EGTA-CsOH 11, Hepes 10, Mg-ATP 5, pH7.3;
The electrode outer liquid (mM): NaCl 135, CsCl 5.4, CaCl2 1.8, MgCl2 1, Hepes 5, glucose 10, pH7.4.

SMILES | Max ΔMAP (mmHg ± SEM) [1] [mmHg] | ΔMAP > 20 (mmHg) Duration time of action [1] [h] | IC50 [2] [µM] | ΔMAP > 20 (mmHg) Duration time of action [3] [h] | Max ΔMAP (mmHg ± SEM) [3] [mmHg] | IC50 [4] [µM]
COC(=O)C1=C(C)NC(C)=C(C(=O)OC2(C)CCN(Cc3ccccc3)C2)C1c1cccc([N+](=O)[O-])c1 (stereo not shown) [Compound 1, 3-(1-benzyl-3-methylpyrrolidin-3-yl) 5-methyl 2,6-dimethyl-4-(3-nitrophenyl)-1,4-dihydropyridine-3,5-dicarboxylate] | 47 ± 7 | 6 | – | – | – | –
COC(=O)C1=C(C)NC(C)=C(C(=O)O[C@]2(C)CCN(CC(c3ccccc3)c3ccccc3)C2)[C@H]1c1cccc([N+](=O)[O-])c1 [Compound 19, (S)-3-[(R)-1-(2,2-diphenylethyl)-3-methylpyrrolidin-3-yl] 5-methyl 2,6-dimethyl-4-(3-nitrophenyl)-1,4-dihydropyridine-3,5-dicarboxylate] | – | – | 75.4 | 24 | 72 ± 8 | –
COC(=O)C1=C(C)NC(C)=C(C(=O)OC2(C)CCN(CCC(c3ccccc3)c3ccccc3)C2)[C@@H]1c1cccc([N+](=O)[O-])c1 (stereo partly drawn) [Compound 14, (4R)-3-[1-(3,3-diphenylpropyl)-3-methylpyrrolidin-3-yl] 5-methyl 2,6-dimethyl-4-(3-nitrophenyl)-1,4-dihydropyridine-3,5-dicarboxylate] | – | – | – | – | – | 0.59
CC1=C(C(=O)OCCN(Cc2ccccc2)c2ccccc2)C(c2cccc([N+](=O)[O-])c2)C(P2(=O)OCC(C)(C)CO2)=C(C)N1 (stereo not shown) [efonidipine, reference compound] | – | – | – | 10 | 69 ± 5 | –
COC(=O)C1=C(C)NC(C)=C(C(=O)OCCN2CCN(C(c3ccccc3)c3ccccc3)CC2)C1c1cccc([N+](=O)[O-])c1 (stereo not shown) [manidipine, reference compound] | – | – | – | 23 | 74 ± 5 | –
COC(=O)C1=C(C)NC(C)=C(C(=O)OC2(C)CCN(Cc3cc(F)cc(F)c3)C2)[C@H]1c1cccc([N+](=O)[O-])c1 (stereo partly drawn) [Compound 23, (4S)-3-[1-(3,5-difluorobenzyl)-3-methylpyrrolidin-3-yl]5-methyl 2,6-dimethyl-4-(3-nitrophenyl)-1,4-dihydropyridine-3,5-dicarboxylate] | – | – | – | 24 | 60 ± 12 | –
COC(=O)C1=C(C)NC(C)=C(C(=O)OC2(C)CCN(CCc3ccccc3)C2)[C@H]1c1cccc([N+](=O)[O-])c1 (stereo partly drawn) [Compound 22, (4S)-3-(3-methyl-1-phenylethylpyrrolidin-3-yl) 5-methyl 2,6-dimethyl-4-(3-nitrophenyl)-1,4-dihydropyridine-3,5-dicarboxylate] | – | – | – | 24 | 43 ± 7 | –
COC(=O)C1=C(C)NC(C)=C(C(=O)O[C@@]2(C)CCN(CC(c3ccccc3)c3ccccc3)C2)[C@H]1c1cccc([N+](=O)[O-])c1 [Compound 20, (S)-3-[(S)-1-(2,2-diphenylethyl)-3-methylpyrrolidin-3-yl] 5-methyl 2,6-dimethyl-4-(3-nitrophenyl)-1,4-dihydropyridine-3,5-dicarboxylate] | – | – | 66.9 | 24 | 80 ± 14 | –
COC(=O)C1=C(C)NC(C)=C(C(=O)O[C@]2(C)CCN(CCC(c3ccccc3)c3ccccc3)C2)[C@H]1c1cccc([N+](=O)[O-])c1 [Compound 17, (S)-3-[(R)-1-(3,3-diphenylpropyl)-3-methylpyrrolidin-3-yl] 5-methyl 2,6-dimethyl-4-(3-nitrophenyl)-1,4-dihydropyridine-3,5-dicarboxylate] | 57 ± 5 | 16 | 9.41 | – | – | 0.93
COC(=O)C1=C(C)NC(C)=C(C(=O)OC2(C)CCN(CCCc3ccccc3)C2)[C@H]1c1cccc([N+](=O)[O-])c1 (stereo partly drawn) [Compound 21, (4S)-3-[3-methyl-1-(3-phenylpropyl)pyrrolidin-3-yl] 5-methyl 2,6-dimethyl-4-(3-nitrophenyl)-1,4-dihydropyridine-3,5-dicarboxylate] | – | – | – | 24 | 28 ± 12 | –
COC(=O)C1=C(C)NC(C)=C(C(=O)OC2(C)CCN(CC(c3ccccc3)c3ccccc3)C2)[C@H]1c1cccc([N+](=O)[O-])c1 (stereo partly drawn) [Compound 18, (4S)-3-[1-(2,2-diphenylethyl)-3-methylpyrrolidin-3-yl] 5-methyl 2,6-dimethyl-4-(3-nitrophenyl)-1,4-dihydropyridine-3,5-dicarboxylate] | – | – | – | 24 | 69 ± 4 | –
COC(=O)C1=C(C)NC(C)=C(C(=O)OC2(C)CCN(CCC(c3ccccc3)c3ccccc3)C2)C1c1cccc([N+](=O)[O-])c1 (stereo not shown) [Compound 2, 3-[1-(3,3-diphenylpropyl)-3-methylpyrrolidin-3-yl] 5-methyl 2,6-dimethyl-4-(3-nitrophenyl)-1,4-dihydropyridine-3,5-dicarboxylate] | 53 ± 7 | 16 | – | – | – | –
CC1=C(C(=O)OC(C)C)C(c2cccc([N+](=O)[O-])c2)C(C(=O)OC2CN(C(c3ccccc3)c3ccccc3)C2)=C(N)N1 (stereo not shown) [azelnidipine, reference compound] | 40 ± 5 | 11 | – | 24 | 79 ± 13 | 1.39
COC(=O)C1=C(C)NC(C)=C(C(=O)OC2(C)CCN(CCC(c3ccccc3)c3ccccc3)C2)[C@H]1c1cccc([N+](=O)[O-])c1 (stereo partly drawn) [Compound 15, (4S)-3-[1-(3,3-diphenylpropyl)-3-methylpyrrolidin-3-yl] 5-methyl 2,6-dimethyl-4-(3-nitrophenyl)-1,4-dihydropyridine-3,5-dicarboxylate] | 56 ± 1 | 14 | – | – | – | 1.28
COC(=O)C1=C(C)NC(C)=C(C(=O)OC2(C)CCN(C(c3ccccc3)c3ccccc3)C2)[C@H]1c1cccc([N+](=O)[O-])c1 (stereo partly drawn) [Compound 26, (4S)-3-[1-diphenylmethyl-3-methylpyrrolidin-3-yl]5-methyl 2,6-dimethyl-4-(3-nitrophenyl)-1,4-dihydropyridine-3,5-dicarboxylate] | – | – | – | 24 | 55 ± 13 | –
